Experimental data reported in ChEMBL document CHEMBL1139135, “Orally active 4-amino-5-diarylurea-furo[2,3-d]pyrimidine derivatives as anti-angiogenic agent inhibiting VEGFR2 and Tie-2” (Bioorg Med Chem Lett, 2007).
Each block holds one molecule with its values, some of them ahead of it. Activity calls are given as the source filed them. No cut-off for these calls is given here.

How the values were obtained:
[1] = biological target: Vascular endothelial growth factor receptor 2 (Homo sapiens, UniProt P35968); assay: Inhibition of human VEGFR2 by HTRF method
Angiopoietin-1 receptor [2] = biological target: T1, Angiopoietin-1 receptor (Homo sapiens, UniProt Q02763); assay: Inhibition of human Tie2 by HTRF method
Target sequence in this assay (Q02763 whole entry): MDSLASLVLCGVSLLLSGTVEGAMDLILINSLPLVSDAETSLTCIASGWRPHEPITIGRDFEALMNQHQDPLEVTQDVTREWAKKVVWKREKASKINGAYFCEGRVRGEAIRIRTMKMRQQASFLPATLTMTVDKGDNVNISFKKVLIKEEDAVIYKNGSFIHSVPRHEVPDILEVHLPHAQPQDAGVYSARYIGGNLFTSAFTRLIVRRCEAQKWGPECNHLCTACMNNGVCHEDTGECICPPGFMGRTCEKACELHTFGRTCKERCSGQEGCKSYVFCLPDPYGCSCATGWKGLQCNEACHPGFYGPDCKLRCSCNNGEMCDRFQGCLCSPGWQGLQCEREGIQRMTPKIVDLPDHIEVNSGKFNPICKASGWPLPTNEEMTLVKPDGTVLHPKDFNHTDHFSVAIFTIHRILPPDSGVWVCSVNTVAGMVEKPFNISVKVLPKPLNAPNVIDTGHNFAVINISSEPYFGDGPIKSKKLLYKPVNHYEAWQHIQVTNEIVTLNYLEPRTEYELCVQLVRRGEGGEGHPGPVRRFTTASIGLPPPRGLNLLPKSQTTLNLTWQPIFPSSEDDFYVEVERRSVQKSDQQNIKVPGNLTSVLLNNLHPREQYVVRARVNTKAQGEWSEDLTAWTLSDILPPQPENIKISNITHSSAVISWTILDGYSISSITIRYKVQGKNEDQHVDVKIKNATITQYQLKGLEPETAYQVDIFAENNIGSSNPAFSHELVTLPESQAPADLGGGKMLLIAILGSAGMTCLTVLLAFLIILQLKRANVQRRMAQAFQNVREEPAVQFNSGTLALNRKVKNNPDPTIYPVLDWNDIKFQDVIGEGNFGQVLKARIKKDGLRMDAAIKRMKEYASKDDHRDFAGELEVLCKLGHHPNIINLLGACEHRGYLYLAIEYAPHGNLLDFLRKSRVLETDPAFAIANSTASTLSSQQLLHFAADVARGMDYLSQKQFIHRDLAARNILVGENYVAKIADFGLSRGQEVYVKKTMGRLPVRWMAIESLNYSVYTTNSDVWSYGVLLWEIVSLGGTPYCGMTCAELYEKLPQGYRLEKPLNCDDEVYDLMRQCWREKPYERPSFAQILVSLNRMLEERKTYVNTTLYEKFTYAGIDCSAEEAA

[3] = biological target: RAC-gamma serine/threonine-protein kinase (Homo sapiens, UniProt Q9Y243); assay: Inhibition of human Akt3
HT-29 [4] = assay: Antiangiogenic activity against human HT29 cells xenografted in nude CD1 mouse assessed as decrease in blood vessel density at 3 mg/kg, po; type: functional; parameters: scale not given: the % may be the effect or the level left
HFF = assay: Cytotoxicity against human HFF cells after 3 days; settings: 72 h
HT-29 [5] = assay: Antiangiogenic activity against human HT29 cells xenografted in nude CD1 mouse; type: functional
[6] = biological target: Vascular endothelial growth factor receptor 1 (Homo sapiens, UniProt P17948); assay: Inhibition of human VEGFR1
HUVEC = assay: Growth inhibition of VEGF-stimulated human HUVEC cells
[7] = Cmax in CD1 mouse at 10.7 mg/kg, po; type: ADME, organism-based; parameters: dose 10.7 mg/kg, route oral; settings: in vivo
HT-29 [8] = assay: Antiangiogenic activity against human HT29 cells xenografted in nude CD1 mouse assessed as decrease in blood vessel density at 30 mg/kg, po; type: functional; parameters: scale not given: the % may be the effect or the level left
HT-29 [9] = assay: Inhibition of tumor growth in human HT29 cells xenografted in orally dosed nude CD1 mouse; type: functional, organism-based
[10] = biological target: Proto-oncogene tyrosine-protein kinase Src (Homo sapiens, UniProt P12931); assay: Inhibition of human SRC
[11] = biological target: Glycogen synthase kinase-3 (Homo sapiens, UniProt P49840+P49841); assay: Inhibition of human GSK3; type: protein assay
[12] = biological target: Vascular endothelial growth factor receptor 3 (Homo sapiens, UniProt P35916); assay: Inhibition of human VGFR3
[13] = Tmax in CD1 mouse at 10.7 mg/kg, po; type: ADME, organism-based; parameters: dose 10.7 mg/kg, route oral; settings: in vivo
[14] = biological target: Macrophage colony-stimulating factor 1 receptor (Homo sapiens, UniProt P07333); assay: Inhibition of human cFMS
[15] = biological target: Epidermal growth factor receptor (Homo sapiens, UniProt P00533); assay: Inhibition of human EGFR
HT-29 [16] = assay: Antiangiogenic activity against human HT29 cells xenografted in nude CD1 mouse assessed as decrease in blood vessel density at 10 mg/kg, po; type: functional; parameters: scale not given: the % may be the effect or the level left
[17] = biological target: Cyclin-dependent kinase 2 (Homo sapiens, UniProt P24941); assay: Inhibition of human CDK2
HT-29 [18] = assay: Cytotoxicity against human HT29 cells after 3 days; settings: HT-29, 72 h
[19] = AUC (0 to t) in CD1 mouse at 10.7 mg/kg, po; type: ADME, organism-based; parameters: dose 10.7 mg/kg, route oral; settings: plasma
[20] = biological target: Platelet-derived growth factor receptor (Homo sapiens, UniProt P09619+P16234); assay: Inhibition of human PDGFR; type: protein-complex assay
Angiopoietin-1 receptor [21] = biological target: T1, Angiopoietin-1 receptor; assay: Inhibition of c-fms/Tie2 chimeric receptor transfected in 3T3 cell assessed as autophosphorylation activity; type: cell-based
Target sequence in this assay (Q02763 23-1124 limits assumed): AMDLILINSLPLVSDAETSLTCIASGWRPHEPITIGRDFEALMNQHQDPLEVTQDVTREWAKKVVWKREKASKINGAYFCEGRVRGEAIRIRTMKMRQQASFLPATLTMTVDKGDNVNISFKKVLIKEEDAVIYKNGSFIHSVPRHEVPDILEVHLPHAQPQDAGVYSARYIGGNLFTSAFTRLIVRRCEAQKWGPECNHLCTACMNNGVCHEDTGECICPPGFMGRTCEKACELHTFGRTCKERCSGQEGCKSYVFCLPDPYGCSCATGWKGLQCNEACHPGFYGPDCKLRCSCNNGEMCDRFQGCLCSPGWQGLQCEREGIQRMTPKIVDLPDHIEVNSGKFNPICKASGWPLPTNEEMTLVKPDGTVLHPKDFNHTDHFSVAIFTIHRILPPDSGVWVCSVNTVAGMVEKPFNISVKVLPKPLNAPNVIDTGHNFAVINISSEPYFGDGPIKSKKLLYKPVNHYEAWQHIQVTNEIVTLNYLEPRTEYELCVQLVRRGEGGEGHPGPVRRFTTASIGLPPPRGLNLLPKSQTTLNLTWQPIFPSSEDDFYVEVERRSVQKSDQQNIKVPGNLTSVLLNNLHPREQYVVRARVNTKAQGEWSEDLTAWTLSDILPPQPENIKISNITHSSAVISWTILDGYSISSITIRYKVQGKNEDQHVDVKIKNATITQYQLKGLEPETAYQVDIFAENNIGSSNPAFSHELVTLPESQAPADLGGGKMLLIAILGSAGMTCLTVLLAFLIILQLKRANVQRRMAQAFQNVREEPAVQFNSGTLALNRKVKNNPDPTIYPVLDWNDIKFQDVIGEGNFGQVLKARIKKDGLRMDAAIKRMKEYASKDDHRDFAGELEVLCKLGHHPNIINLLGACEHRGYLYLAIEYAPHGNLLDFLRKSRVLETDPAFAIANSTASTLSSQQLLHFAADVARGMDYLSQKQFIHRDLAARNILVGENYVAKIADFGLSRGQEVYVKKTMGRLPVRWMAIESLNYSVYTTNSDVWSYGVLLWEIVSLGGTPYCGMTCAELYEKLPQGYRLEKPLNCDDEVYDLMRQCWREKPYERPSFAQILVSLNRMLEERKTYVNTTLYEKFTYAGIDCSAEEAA

Chain of Vascular endothelial growth factor receptor 2 (P35968 whole entry, looked up): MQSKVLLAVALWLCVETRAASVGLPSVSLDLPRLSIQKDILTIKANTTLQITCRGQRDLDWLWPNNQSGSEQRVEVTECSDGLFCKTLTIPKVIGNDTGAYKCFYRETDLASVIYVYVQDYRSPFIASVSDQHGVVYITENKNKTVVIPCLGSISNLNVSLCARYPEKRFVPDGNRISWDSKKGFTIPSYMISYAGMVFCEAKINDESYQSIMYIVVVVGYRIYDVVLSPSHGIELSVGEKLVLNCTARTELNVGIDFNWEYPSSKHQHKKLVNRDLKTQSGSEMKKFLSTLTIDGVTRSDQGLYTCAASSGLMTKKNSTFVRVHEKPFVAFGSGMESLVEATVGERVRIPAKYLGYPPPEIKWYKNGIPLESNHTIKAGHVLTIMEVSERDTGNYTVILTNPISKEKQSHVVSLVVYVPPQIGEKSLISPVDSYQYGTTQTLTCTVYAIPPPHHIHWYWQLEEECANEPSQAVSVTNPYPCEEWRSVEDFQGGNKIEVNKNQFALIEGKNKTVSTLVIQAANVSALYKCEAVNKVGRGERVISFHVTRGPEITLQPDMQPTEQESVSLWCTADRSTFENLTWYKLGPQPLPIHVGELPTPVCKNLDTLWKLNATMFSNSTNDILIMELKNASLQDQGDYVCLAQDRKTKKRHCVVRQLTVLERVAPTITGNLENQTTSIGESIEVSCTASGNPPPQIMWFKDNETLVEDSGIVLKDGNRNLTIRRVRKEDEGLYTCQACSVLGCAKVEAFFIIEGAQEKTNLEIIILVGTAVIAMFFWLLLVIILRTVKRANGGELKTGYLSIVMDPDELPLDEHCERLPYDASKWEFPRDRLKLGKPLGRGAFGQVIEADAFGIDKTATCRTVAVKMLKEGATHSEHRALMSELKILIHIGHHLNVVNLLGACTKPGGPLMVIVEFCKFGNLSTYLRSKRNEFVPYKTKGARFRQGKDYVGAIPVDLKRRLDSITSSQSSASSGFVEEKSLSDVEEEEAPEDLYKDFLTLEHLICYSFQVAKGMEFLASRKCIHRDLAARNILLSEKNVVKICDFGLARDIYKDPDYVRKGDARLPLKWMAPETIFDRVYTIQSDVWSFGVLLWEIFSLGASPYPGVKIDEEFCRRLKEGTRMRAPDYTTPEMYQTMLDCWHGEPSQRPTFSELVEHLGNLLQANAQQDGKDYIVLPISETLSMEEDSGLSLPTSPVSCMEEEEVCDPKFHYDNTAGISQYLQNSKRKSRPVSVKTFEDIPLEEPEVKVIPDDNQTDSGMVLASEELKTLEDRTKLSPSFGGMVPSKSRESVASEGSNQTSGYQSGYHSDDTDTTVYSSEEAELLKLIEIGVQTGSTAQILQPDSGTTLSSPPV
Chain of Proto-oncogene tyrosine-protein kinase Src (P12931 2-536 limits assumed): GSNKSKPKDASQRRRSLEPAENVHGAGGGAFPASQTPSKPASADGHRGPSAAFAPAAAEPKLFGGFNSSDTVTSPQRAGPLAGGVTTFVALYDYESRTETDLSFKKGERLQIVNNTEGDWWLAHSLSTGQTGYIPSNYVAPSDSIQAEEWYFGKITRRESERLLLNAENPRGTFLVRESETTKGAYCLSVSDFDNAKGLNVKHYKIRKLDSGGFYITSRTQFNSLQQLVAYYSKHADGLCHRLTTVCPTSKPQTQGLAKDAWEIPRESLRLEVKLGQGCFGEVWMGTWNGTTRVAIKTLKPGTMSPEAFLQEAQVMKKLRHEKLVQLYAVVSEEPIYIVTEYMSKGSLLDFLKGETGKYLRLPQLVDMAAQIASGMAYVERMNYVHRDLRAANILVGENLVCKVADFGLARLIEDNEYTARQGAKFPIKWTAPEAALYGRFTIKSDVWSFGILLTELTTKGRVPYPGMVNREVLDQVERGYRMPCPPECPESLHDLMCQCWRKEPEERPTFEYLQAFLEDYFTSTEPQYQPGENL
Chain of RAC-gamma serine/threonine-protein kinase (Q9Y243 whole entry): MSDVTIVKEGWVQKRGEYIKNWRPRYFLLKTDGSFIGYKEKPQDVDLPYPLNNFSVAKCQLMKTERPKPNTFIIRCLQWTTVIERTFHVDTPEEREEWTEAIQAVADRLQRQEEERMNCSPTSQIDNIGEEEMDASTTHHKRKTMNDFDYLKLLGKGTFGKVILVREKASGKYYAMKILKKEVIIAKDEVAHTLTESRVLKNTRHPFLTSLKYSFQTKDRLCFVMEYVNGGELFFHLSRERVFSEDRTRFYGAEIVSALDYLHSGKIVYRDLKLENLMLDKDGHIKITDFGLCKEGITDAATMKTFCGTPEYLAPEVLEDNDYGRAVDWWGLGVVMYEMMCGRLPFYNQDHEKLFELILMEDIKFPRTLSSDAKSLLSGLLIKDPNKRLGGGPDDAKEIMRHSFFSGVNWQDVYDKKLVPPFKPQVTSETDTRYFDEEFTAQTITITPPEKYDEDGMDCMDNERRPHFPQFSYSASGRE

IC50 [1]: 447 nM
IC50 (Angiopoietin-1 receptor [2]): 182 nM
SMILES: Nc1ncnc2occ(-c3ccc(NC(=O)Nc4cccc5ccccc45)cc3)c12

IC50 [1]: 1740 nM
IC50 (Angiopoietin-1 receptor [2]): 407 nM
SMILES: Nc1ncnc2occ(-c3ccc(NC(=O)Nc4cccc(Oc5ccccc5)c4)cc3)c12

IC50 [1]: 331 nM
IC50 (Angiopoietin-1 receptor [2]): 224 nM
SMILES: COc1ccc(F)c(NC(=O)Nc2ccc(-c3coc4ncnc(N)c34)cc2)c1

IC50 [1]: 24 nM
IC50 (Angiopoietin-1 receptor [2]): 81.3 nM
SMILES: Nc1ncnc2occ(-c3ccc(NC(=O)Nc4ccc5ccccc5c4)cc3)c12

IC50 [1]: 186 nM
IC50 (Angiopoietin-1 receptor [2]): 204 nM
SMILES: Nc1ncnc2occ(-c3ccc(NC(=O)Nc4cc(C(F)(F)F)ccc4Cl)cc3)c12

IC50 [3]: 17400 nM
IC50 [6]: 8.51 nM
IC50 [1]: 7.76 nM
Cmax [7]: 2720 ng/mL
IC50 (Angiopoietin-1 receptor [2]): 13.5 nM
IC50 [10]: 537 nM
Log IC50 [11]: -5.66
IC50 [12]: 7.59 nM
Tmax [13]: 2 h
IC50 [14]: 38.9 nM
IC50 [15]: 10000 nM
IC50 [17]: 17800 nM
AUC(0-t) [19]: 20000 ng·h/mL
IC50 [20]: 27.5 nM
IC50 (Angiopoietin-1 receptor [21]): 18.3 nM
SMILES: Nc1ncnc2occ(-c3ccc(NC(=O)Nc4cc(C(F)(F)F)ccc4F)cc3)c12 [GW770249X]
Activity (HT-29 [4]): 24.3%
IC50 (HFF): 2510 nM
Activity (HT-29 [5]): Active
IC50 (HUVEC): 2.6 nM
Activity (HT-29 [8]): 62.9%
Activity (HT-29 [9]): Dose-dependent effect
Activity (HT-29 [16]): 35.6%
IC50 (HT-29 [18]): 5080 nM

IC50 (Angiopoietin-1 receptor [2]): 380 nM
SMILES: Nc1ncnc2occ(-c3ccc(NC(=O)Nc4cc(C(F)(F)F)cc(C(F)(F)F)c4)cc3)c12 [GW795486X]

IC50 [1]: 7.08 nM
IC50 (Angiopoietin-1 receptor [2]): 10.2 nM
SMILES: Nc1ncnc2occ(-c3ccc(NC(=O)Nc4cccc(C(F)(F)F)c4)cc3)c12 [GW795493X]
